ChEMBL document CHEMBL5380831, “Azolylpyrimidinediols as Novel Structural Scaffolds of DNA-Groove Binders against Intractable Acinetobacter baumannii” (J Med Chem, 2023)
In brackets after ≈: the same amount, converted by molar mass.

Tested on: Klebsiella pneumoniae
Experiment: Antibacterial activity against Klebsiella pneumoniae assessed as bacterial growth inhibition incubated for 24 hrs by broth microdilution method
Assay type: functional

Compound | MIC [µM]
OCCN(CCO)c1ccnc(-n2ccnc2-c2ccccc2)n1 | 787 (≈ 256 µg/mL)
O=c1ccc2c(CN3CCN(c4nccc(-n5cncn5)n4)CC3)cc(O)cc2o1 | 632 (≈ 256 µg/mL)
CN(CCO)c1nccc(-n2cncn2)n1 | 1160 (≈ 256 µg/mL)
Cc1cn(-c2nccc(N(CCO)CCO)n2)c(C)n1 | 924 (≈ 256 µg/mL)
Cc1nccn1-c1ccnc(N(CCO)CCO)n1 | 973 (≈ 256 µg/mL)
CN(C)c1nccc(-n2cncn2)n1 | 1350 (≈ 256 µg/mL)
CCc1nccn1-c1ccnc(N(CCO)CCO)n1 | 1850 (≈ 512 µg/mL)
CC(C)N(c1nccc(-n2cncn2)n1)C(C)C | 1040 (≈ 256 µg/mL)
OCCN(CCO)c1nccc(-n2cnc3cc(Br)ccc32)n1 | 170 (≈ 64.3 µg/mL)
O=C(CCCCl)N1CCN(c2nccc(-n3cncn3)n2)CC1 | 382 (≈ 128 µg/mL)

Tested on: Staphylococcus aureus
Experiment: Antibacterial activity against methicillin-resistant Staphylococcus aureus assessed as bacterial growth inhibition incubated for 24 hrs by broth microdilution method
Assay type: functional

Compound | MIC [µM]
OCCN(CCO)c1ccnc(-n2ccnc2-c2ccccc2)n1 | 1580 (≈ 512 µg/mL)
O=c1ccc2c(CN3CCN(c4nccc(-n5cncn5)n4)CC3)cc(O)cc2o1 | 316 (≈ 128 µg/mL)
CN(CCO)c1nccc(-n2cncn2)n1 | 1160 (≈ 256 µg/mL)
Cc1cn(-c2nccc(N(CCO)CCO)n2)c(C)n1 | 924 (≈ 256 µg/mL)
Cc1nccn1-c1ccnc(N(CCO)CCO)n1 | 973 (≈ 256 µg/mL)
CN(C)c1nccc(-n2cncn2)n1 | 1350 (≈ 256 µg/mL)
CCc1nccn1-c1ccnc(N(CCO)CCO)n1 | 924 (≈ 256 µg/mL)
CC(C)N(c1nccc(-n2cncn2)n1)C(C)C | 520 (≈ 128 µg/mL)
OCCN(CCO)c1nccc(-n2cnc3cc(Br)ccc32)n1 | 339 (≈ 128 µg/mL)
O=C(CCCCl)N1CCN(c2nccc(-n3cncn3)n2)CC1 | 382 (≈ 128 µg/mL)

Tested on: Staphylococcus aureus
Experiment: Antibacterial activity against Staphylococcus aureus ATCC 25923 assessed as bacterial growth inhibition incubated for 24 hrs by broth microdilution method
Assay type: functional

Compound | MIC [µM]
OCCN(CCO)c1ccnc(-n2ccnc2-c2ccccc2)n1 | 394 (≈ 128 µg/mL)
O=c1ccc2c(CN3CCN(c4nccc(-n5cncn5)n4)CC3)cc(O)cc2o1 | 316 (≈ 128 µg/mL)
CN(CCO)c1nccc(-n2cncn2)n1 | 1160 (≈ 256 µg/mL)
Cc1cn(-c2nccc(N(CCO)CCO)n2)c(C)n1 | 924 (≈ 256 µg/mL)
Cc1nccn1-c1ccnc(N(CCO)CCO)n1 | 973 (≈ 256 µg/mL)
CN(C)c1nccc(-n2cncn2)n1 | 1350 (≈ 256 µg/mL)
CCc1nccn1-c1ccnc(N(CCO)CCO)n1 | 924 (≈ 256 µg/mL)
CC(C)N(c1nccc(-n2cncn2)n1)C(C)C | 520 (≈ 128 µg/mL)
OCCN(CCO)c1nccc(-n2cnc3cc(Br)ccc32)n1 | 339 (≈ 128 µg/mL)
O=C(CCCCl)N1CCN(c2nccc(-n3cncn3)n2)CC1 | 382 (≈ 128 µg/mL)

Tested on: Pseudomonas aeruginosa
Experiment: Antibacterial activity against Pseudomonas aeruginosa assessed as bacterial growth inhibition incubated for 24 hrs by broth microdilution method
Assay type: functional

Compound | MIC [µM]
OCCN(CCO)c1ccnc(-n2ccnc2-c2ccccc2)n1 | 197 (≈ 64.1 µg/mL)
O=c1ccc2c(CN3CCN(c4nccc(-n5cncn5)n4)CC3)cc(O)cc2o1 | 316 (≈ 128 µg/mL)
CN(CCO)c1nccc(-n2cncn2)n1 | 291 (≈ 64.1 µg/mL)
Cc1cn(-c2nccc(N(CCO)CCO)n2)c(C)n1 | 462 (≈ 128 µg/mL)
Cc1nccn1-c1ccnc(N(CCO)CCO)n1 | 486 (≈ 128 µg/mL)
CN(C)c1nccc(-n2cncn2)n1 | 337 (≈ 64.1 µg/mL)
CCc1nccn1-c1ccnc(N(CCO)CCO)n1 | 924 (≈ 256 µg/mL)
CC(C)N(c1nccc(-n2cncn2)n1)C(C)C | 520 (≈ 128 µg/mL)
OCCN(CCO)c1nccc(-n2cnc3cc(Br)ccc32)n1 | 339 (≈ 128 µg/mL)
O=C(CCCCl)N1CCN(c2nccc(-n3cncn3)n2)CC1 | 764 (≈ 257 µg/mL)

Tested on: Escherichia coli
Experiment: Antibacterial activity against Escherichia coli assessed as bacterial growth inhibition incubated for 24 hrs by broth microdilution method
Assay type: functional

Compound | MIC [µM]
OCCN(CCO)c1ccnc(-n2ccnc2-c2ccccc2)n1 | 787 (≈ 256 µg/mL)
O=c1ccc2c(CN3CCN(c4nccc(-n5cncn5)n4)CC3)cc(O)cc2o1 | 632 (≈ 256 µg/mL)
CN(CCO)c1nccc(-n2cncn2)n1 | 1160 (≈ 256 µg/mL)
Cc1cn(-c2nccc(N(CCO)CCO)n2)c(C)n1 | 924 (≈ 256 µg/mL)
Cc1nccn1-c1ccnc(N(CCO)CCO)n1 | 973 (≈ 256 µg/mL)
CN(C)c1nccc(-n2cncn2)n1 | 1350 (≈ 256 µg/mL)
CCc1nccn1-c1ccnc(N(CCO)CCO)n1 | 924 (≈ 256 µg/mL)
CC(C)N(c1nccc(-n2cncn2)n1)C(C)C | 1040 (≈ 256 µg/mL)
OCCN(CCO)c1nccc(-n2cnc3cc(Br)ccc32)n1 | 1360 (≈ 514 µg/mL)
O=C(CCCCl)N1CCN(c2nccc(-n3cncn3)n2)CC1 | 382 (≈ 128 µg/mL)

Tested on: Pseudomonas aeruginosa
Experiment: Antibacterial activity against Pseudomonas aeruginosa ATCC 27853 assessed as bacterial growth inhibition incubated for 24 hrs by broth microdilution method
Assay type: functional

Compound | MIC [µM]
OCCN(CCO)c1ccnc(-n2ccnc2-c2ccccc2)n1 | 787 (≈ 256 µg/mL)
O=c1ccc2c(CN3CCN(c4nccc(-n5cncn5)n4)CC3)cc(O)cc2o1 | 632 (≈ 256 µg/mL)
CN(CCO)c1nccc(-n2cncn2)n1 | 1160 (≈ 256 µg/mL)
Cc1cn(-c2nccc(N(CCO)CCO)n2)c(C)n1 | 924 (≈ 256 µg/mL)
Cc1nccn1-c1ccnc(N(CCO)CCO)n1 | 973 (≈ 256 µg/mL)
CN(C)c1nccc(-n2cncn2)n1 | 1350 (≈ 256 µg/mL)
CCc1nccn1-c1ccnc(N(CCO)CCO)n1 | 924 (≈ 256 µg/mL)
CC(C)N(c1nccc(-n2cncn2)n1)C(C)C | 520 (≈ 128 µg/mL)
OCCN(CCO)c1nccc(-n2cnc3cc(Br)ccc32)n1 | 85 (≈ 32.1 µg/mL)
O=C(CCCCl)N1CCN(c2nccc(-n3cncn3)n2)CC1 | 382 (≈ 128 µg/mL)

Tested on: Acinetobacter baumannii
Experiment: Antibacterial activity against Acinetobacter baumannii assessed as bacterial growth inhibition incubated for 24 hrs by broth microdilution method
Assay type: functional

Compound | MIC [µM]
OCCN(CCO)c1ccnc(-n2ccnc2-c2ccccc2)n1 | 394 (≈ 128 µg/mL)
O=c1ccc2c(CN3CCN(c4nccc(-n5cncn5)n4)CC3)cc(O)cc2o1 | 158 (≈ 64.1 µg/mL)
CN(CCO)c1nccc(-n2cncn2)n1 | 1360 (≈ 300 µg/mL)
Cc1cn(-c2nccc(N(CCO)CCO)n2)c(C)n1 | 924 (≈ 256 µg/mL)
Cc1nccn1-c1ccnc(N(CCO)CCO)n1 | 973 (≈ 256 µg/mL)
CN(C)c1nccc(-n2cncn2)n1 | 1350 (≈ 256 µg/mL)
CCc1nccn1-c1ccnc(N(CCO)CCO)n1 | 924 (≈ 256 µg/mL)
CC(C)N(c1nccc(-n2cncn2)n1)C(C)C | 1040 (≈ 256 µg/mL)
OCCN(CCO)c1nccc(-n2cnc3cc(Br)ccc32)n1 | 170 (≈ 64.3 µg/mL)
O=C(CCCCl)N1CCN(c2nccc(-n3cncn3)n2)CC1 | 382 (≈ 128 µg/mL)

Tested on: Escherichia coli
Experiment: Antibacterial activity against Escherichia coli ATCC 25922 assessed as bacterial growth inhibition incubated for 24 hrs by broth microdilution method
Assay type: functional

Compound | MIC [µM]
OCCN(CCO)c1ccnc(-n2ccnc2-c2ccccc2)n1 | 1580 (≈ 512 µg/mL)
O=c1ccc2c(CN3CCN(c4nccc(-n5cncn5)n4)CC3)cc(O)cc2o1 | 633 (≈ 257 µg/mL)
CN(CCO)c1nccc(-n2cncn2)n1 | 582 (≈ 128 µg/mL)
Cc1cn(-c2nccc(N(CCO)CCO)n2)c(C)n1 | 924 (≈ 256 µg/mL)
Cc1nccn1-c1ccnc(N(CCO)CCO)n1 | 973 (≈ 256 µg/mL)
CN(C)c1nccc(-n2cncn2)n1 | 673 (≈ 128 µg/mL)
CCc1nccn1-c1ccnc(N(CCO)CCO)n1 | 924 (≈ 256 µg/mL)
CC(C)N(c1nccc(-n2cncn2)n1)C(C)C | 1040 (≈ 256 µg/mL)
OCCN(CCO)c1nccc(-n2cnc3cc(Br)ccc32)n1 | 1360 (≈ 514 µg/mL)
O=C(CCCCl)N1CCN(c2nccc(-n3cncn3)n2)CC1 | 382 (≈ 128 µg/mL)

Tested on: Staphylococcus aureus
Experiment: Antibacterial activity against Staphylococcus aureus ATCC 29213 assessed as bacterial growth inhibition incubated for 24 hrs by broth microdilution method
Assay type: functional

Compound | MIC [µM]
OCCN(CCO)c1ccnc(-n2ccnc2-c2ccccc2)n1 | 787 (≈ 256 µg/mL)
O=c1ccc2c(CN3CCN(c4nccc(-n5cncn5)n4)CC3)cc(O)cc2o1 | 632 (≈ 256 µg/mL)
CN(CCO)c1nccc(-n2cncn2)n1 | 1160 (≈ 256 µg/mL)
Cc1cn(-c2nccc(N(CCO)CCO)n2)c(C)n1 | 924 (≈ 256 µg/mL)
Cc1nccn1-c1ccnc(N(CCO)CCO)n1 | 1950 (≈ 512 µg/mL)
CN(C)c1nccc(-n2cncn2)n1 | 1350 (≈ 256 µg/mL)
CCc1nccn1-c1ccnc(N(CCO)CCO)n1 | 924 (≈ 256 µg/mL)
CC(C)N(c1nccc(-n2cncn2)n1)C(C)C | 1040 (≈ 256 µg/mL)
OCCN(CCO)c1nccc(-n2cnc3cc(Br)ccc32)n1 | 85 (≈ 32.1 µg/mL)
O=C(CCCCl)N1CCN(c2nccc(-n3cncn3)n2)CC1 | 764 (≈ 257 µg/mL)

Tested on: Enterococcus faecalis
Experiment: Antibacterial activity against Enterococcus faecalis assessed as bacterial growth inhibition incubated for 24 hrs by broth microdilution method
Assay type: functional

Compound | MIC [µM]
OCCN(CCO)c1ccnc(-n2ccnc2-c2ccccc2)n1 | 787 (≈ 256 µg/mL)
O=c1ccc2c(CN3CCN(c4nccc(-n5cncn5)n4)CC3)cc(O)cc2o1 | 316 (≈ 128 µg/mL)
CN(CCO)c1nccc(-n2cncn2)n1 | 582 (≈ 128 µg/mL)
Cc1cn(-c2nccc(N(CCO)CCO)n2)c(C)n1 | 58 (≈ 16.1 µg/mL)
Cc1nccn1-c1ccnc(N(CCO)CCO)n1 | 973 (≈ 256 µg/mL)
CN(C)c1nccc(-n2cncn2)n1 | 1350 (≈ 256 µg/mL)
CCc1nccn1-c1ccnc(N(CCO)CCO)n1 | 924 (≈ 256 µg/mL)
CC(C)N(c1nccc(-n2cncn2)n1)C(C)C | 1040 (≈ 256 µg/mL)
OCCN(CCO)c1nccc(-n2cnc3cc(Br)ccc32)n1 | 679 (≈ 257 µg/mL)
O=C(CCCCl)N1CCN(c2nccc(-n3cncn3)n2)CC1 | 382 (≈ 128 µg/mL)

Tested on: Staphylococcus aureus
Experiment: Antibacterial activity against Staphylococcus aureus assessed as bacterial growth inhibition incubated for 24 hrs by broth microdilution method
Assay type: functional

Compound | MIC [µM]
OCCN(CCO)c1ccnc(-n2ccnc2-c2ccccc2)n1 | 787 (≈ 256 µg/mL)
O=c1ccc2c(CN3CCN(c4nccc(-n5cncn5)n4)CC3)cc(O)cc2o1 | 316 (≈ 128 µg/mL)
CN(CCO)c1nccc(-n2cncn2)n1 | 1160 (≈ 256 µg/mL)
Cc1cn(-c2nccc(N(CCO)CCO)n2)c(C)n1 | 924 (≈ 256 µg/mL)
Cc1nccn1-c1ccnc(N(CCO)CCO)n1 | 973 (≈ 256 µg/mL)
CN(C)c1nccc(-n2cncn2)n1 | 1350 (≈ 256 µg/mL)
CCc1nccn1-c1ccnc(N(CCO)CCO)n1 | 924 (≈ 256 µg/mL)
CC(C)N(c1nccc(-n2cncn2)n1)C(C)C | 1040 (≈ 256 µg/mL)
OCCN(CCO)c1nccc(-n2cnc3cc(Br)ccc32)n1 | 1360 (≈ 514 µg/mL)
O=C(CCCCl)N1CCN(c2nccc(-n3cncn3)n2)CC1 | 764 (≈ 257 µg/mL)
